The record followed here is ChEMBL document CHEMBL1124148 (J Med Chem, 1988).

Test [1] in a line: Inhibition of FPGS from mouse liver in the presence of folic acid. It counts as functional.
The target in test [2] is T1, Dihydrofolate reductase (Mus musculus, UniProt P00375).
T1 sequence (P00375 whole entry): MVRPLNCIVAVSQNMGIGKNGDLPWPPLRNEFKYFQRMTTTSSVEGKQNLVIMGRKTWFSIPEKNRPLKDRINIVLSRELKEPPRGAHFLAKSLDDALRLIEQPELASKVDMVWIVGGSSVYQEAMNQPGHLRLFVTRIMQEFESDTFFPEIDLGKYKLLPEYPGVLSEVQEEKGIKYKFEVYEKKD
Description: Inhibition of dihydrofolate reductase (DHFR) from murine leukemia cells

The subject of test [3] is L1210. Description: Inhibitory concentration against growth of L1210 cell line. The settings on record: Mus musculus. Type of test: functional, cell-based.
Test [4] concerns L1210 ( R81). Description: Inhibitory concentration against growth of L1210/R81 cell line. Type of test: functional, cell-based. The settings on record: Mus musculus.
Test [5] is described as follows: Cell-growth inhibition against SCC15/R1 cell line. Type of test: functional, cell-based. The settings on record: Homo sapiens, SCC-15.
Test [6] in a line: Cell-growth inhibition against SCC25/R1 cell line. Type of test: functional, cell-based. The following applies: Homo sapiens, SCC-25.
Test [7] can be described thus: Cell-growth inhibition against SCC15 cell line. The settings on record: Homo sapiens, SCC-15. Type of test: functional, cell-based.
Test [8] is described as follows: Cell-growth inhibition against SCC25 cell line. It counts as functional, cell-based. The following applies: Homo sapiens, SCC-25.
The test system of test [9] is SCC-25. Put plainly: Inhibitory concentration against growth of SCC25 cell line. It counts as functional, cell-based. The following applies: Homo sapiens.
Test [10] relates to SCC-15. Put plainly: Inhibitory concentration against growth of SCC15/R1 cell line. It counts as functional, cell-based. The settings on record: Homo sapiens.
In test [11] the test system is SCC-15. Put plainly: Inhibitory concentration against growth of SCC15 cell line. Type of test: functional, cell-based. The following applies: Homo sapiens.
Test [12] has as its system SCC-25. Put plainly: Inhibitory concentration against growth of SCC25/R1 cell line. Type of test: functional, cell-based. The settings on record: Homo sapiens.

The structures appear in SMILES notation. pIC50, pKi: −log10 of the molar value. Where only a bound is given, the exact number is not on record here.

As to `Nc1nc(N)c2nc(CNc3ccc(C(=O)NC(CCCNC(=O)CCC(=O)O)C(=O)O)cc3)cnc2n1` (stereo not given), the pKi in test [1] was 4.36.
On to `Nc1nc(N)c2nc(CNc3ccc(C(=O)N[C@@H](CCCNC(=O)c4ccc(Cl)c(Cl)c4)C(=O)O)cc3)cnc2n1`, for which the pIC50 is 7.35 in test [2] and 7.49 in [3].
For `Nc1nc(N)c2nc(CNc3ccc(C(=O)NC(CCCNC(=O)c4ccccc4)C(=O)O)cc3)cnc2n1` (stereo not given), the pIC50 was 7.57 in test [2], 9.05 in test [3] and 4.77 in test [4]. In addition, in test [1], the negative-log Ki (pKi) was below 4.00.
Turning to `Nc1nc(N)c2nc(CN(C=O)c3ccc(C(=O)NC(CCCNC(=O)c4ccccc4)C(=O)O)cc3)cnc2n1` (stereo not given), the results for the pIC50 in [2], in test [3] and in test [4] were 7.47, 7.70 and 3.81, respectively. Moreover, in test [1], the pKi is below 3.00.
Take `Nc1nc(N)c2nc(CNc3ccc(C(=O)NC(CCCNC(=O)c4ccccc4C(=O)O)C(=O)O)cc3)cnc2n1` (stereo not given): the pIC50 in test [5] was 8.40; in [6], 8.89; in [7], 8.96; in test [3], 9.12; in test [8], 9.02.
Take `CC(=O)NCCCC(NC(=O)c1ccc(N(C=O)Cc2cnc3nc(N)nc(N)c3n2)cc1)C(=O)O` (stereo not given): the negative-log IC50 (pIC50) is 7.28 in test [2], 6.39 in [3] and 3.64 in test [4].
As for `NCCCC(NC(=O)c1ccc(NCc2cnc3nc(N)nc(N)c3n2)cc1)C(=O)O` (stereo not given), the pKi in test [1] is 6.82.
Turning to `Nc1nc(N)c2nc(CN(C=O)c3ccc(C(=O)NC(CCCNC(=O)CCC(=O)O)C(=O)O)cc3)cnc2n1` (stereo not given), the pKi in test [1] is below 4.00.
On to `Nc1nc(N)c2nc(CN(C=O)c3ccc(C(=O)NC(CCCNC(=O)c4ccc(Cl)cc4)C(=O)O)cc3)cnc2n1` (stereo not given), for which the values for the pIC50 in test [2], in [3] and in [4] were 7.82, 6.70 and below 3.70, respectively. Moreover, the pKi in [1] is below 4.00.
Take `NCCCC(NC(=O)c1ccc(N(C=O)Cc2cnc3nc(N)nc(N)c3n2)cc1)C(=O)O` (stereo not given): the negative-log Ki (pKi) in test [1] was 6.19.
As to `CN(Cc1cnc2nc(N)nc(N)c2n1)c1ccc(C(=O)NC(CCC(=O)OC(C)(C)C)C(=O)O)cc1` (stereo not given), the pIC50 is 5.89 in [5], 6.11 in [6], 6.22 in [7] and 6.40 in test [8].
Consider `CN(Cc1cnc2nc(N)nc(N)c2n1)c1ccc(C(=O)N[C@@H](CCC(=O)O)C(=O)O)cc1` [METHOTREXATE], for which the pIC50 in test [9] is 8.12; in test [10] it was 6.24; in test [11] it was 7.42; in [4], 3.70; in test [12], 6.82.
Consider `CC(=O)NCCCC(NC(=O)c1ccc(NCc2cnc3nc(N)nc(N)c3n2)cc1)C(=O)O` (stereo not given), for which the figures for the pIC50 in test [2], in test [3] and in test [4] were 7.55, 7.77 and 4.09, respectively. In addition, the pKi in test [1] was 4.17.
Regarding `Nc1nc(N)c2nc(CNc3ccc(C(=O)NC(CCCNC(=O)c4ccc(Cl)cc4)C(=O)O)cc3)cnc2n1` (stereo not given), the pIC50 in test [2] was 7.55; in test [3], 8.49; in [4] it was 4.57.
The like results for `Nc1nc(N)c2nc(CN(C=O)c3ccc(C(=O)NC(CCCNC(=O)c4ccc(Cl)c(Cl)c4)C(=O)O)cc3)cnc2n1` (stereo not given) were, in that order, 7.25, 5.49 and below 3.70.
